≈ marks a conversion by molar mass, not a printed value. Calls of active or inactive are those of the source. The rule behind the calls is not given here.
Columns and labels:
[1] = system: Staphylococcus aureus; experiment: microbe, parasite or virus in culture; conditions: ATCC BAA41, 24 h
Description: Synergistic antibacterial activity against methicillin-resistant Staphylococcus aureus ATCC BAA41 assessed as inhibition of bacterial growth incubated for 24 hrs in presence of (E)-2-(4-(dimethylamino)styryl)-1-methyl-4-(pentylamino)quinolin-1-ium iodide by checker board assay

[2] = system: Staphylococcus aureus; experiment: microbe, parasite or virus in culture; conditions: ATCC BAA41, 24 h; remark: listed apart in the source
Description: Synergistic antibacterial activity against methicillin-resistant Staphylococcus aureus ATCC BAA41 assessed as inhibition of bacterial growth incubated for 24 hrs in presence of (E)-2-(4-(dimethylamino)styryl)-1-methyl-4-(4-methylpiperidin-1-yl)quinolin-1-ium iodide by checker board assay

[3] = system: Staphylococcus aureus; experiment: Antibacterial activity against methicillin-resistant Staphylococcus aureus ATCC BAA41 assessed as inhibition of bacterial growth incubated for 24 hrs by checker board assay; assay type: functional
[4] = system: Staphylococcus aureus; experiment: microbe, parasite or virus in culture; conditions: ATCC BAA41, 24 h; remark: listed apart in the source
Description: Synergistic antibacterial activity against methicillin-resistant Staphylococcus aureus ATCC BAA41 assessed as inhibition of bacterial growth incubated for 24 hrs in presence of (E)-2-(4-(dimethylamino)styryl)-1-methyl-4-(piperidin-1-yl)quinolin-1-ium iodide by checker board assay

[5] = system: Staphylococcus aureus; experiment: microbe, parasite or virus in culture; conditions: ATCC BAA41, 24 h; remark: listed apart in the source
Description: Synergistic antibacterial activity against methicillin-resistant Staphylococcus aureus ATCC BAA41 assessed as inhibition of bacterial growth incubated for 24 hrs in presence of (E)-4-(4-(dimethylamino)styryl)-1-methyl-2-(4-methylpiperidin-1-yl)quinolin-1-ium iodide by checker board assay

[6] = system: Erythrocyte; experiment: Hemolytic activity in Kunming mouse erythrocyte at 1 to 64 ug/ml incubated for 1 hr; assay type: toxicity, cell-based; conditions: dose 1-64 µg/ml
[7] = system: Escherichia coli; experiment: Antibacterial activity against NDM-1 expressing Escherichia coli ATCC BAA2469 assessed as inhibition of bacterial growth incubated for 20 to 24 hrs by broth micro dilution method; assay type: functional; conditions: time 20-24 hrs
[8] = target: T1, Cell division protein FtsZ (Staphylococcus aureus) (UniProt P0A031); experiment: Binding affinity to Staphylococcus aureus FtsZ assessed as decrease in random coil structure at 8 ug/ml incubated for 30 mins by circular dichroism method; conditions: dose 8.0 µg/ml
T1 sequence (whole entry): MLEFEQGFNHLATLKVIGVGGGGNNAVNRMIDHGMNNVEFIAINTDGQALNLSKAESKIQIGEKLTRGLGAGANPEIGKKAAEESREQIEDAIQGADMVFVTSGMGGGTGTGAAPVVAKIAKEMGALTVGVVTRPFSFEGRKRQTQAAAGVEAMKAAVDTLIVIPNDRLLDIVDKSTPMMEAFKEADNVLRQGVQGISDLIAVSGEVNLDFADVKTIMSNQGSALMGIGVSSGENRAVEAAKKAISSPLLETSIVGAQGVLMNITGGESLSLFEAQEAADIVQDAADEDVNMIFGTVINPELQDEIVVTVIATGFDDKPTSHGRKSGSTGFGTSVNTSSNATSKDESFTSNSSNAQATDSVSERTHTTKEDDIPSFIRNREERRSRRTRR

[9] = system: Staphylococcus aureus; experiment: Antibacterial activity against methicillin-resistant Staphylococcus aureus ATCC 33592 assessed as inhibition of bacterial growth incubated for 20 to 24 hrs by broth micro dilution method; assay type: functional; conditions: time 20-24 hrs
[10] = system: Klebsiella pneumoniae; experiment: Antibacterial activity against NDM-1 expressing Klebsiella pneumoniae ATCC BAA 2470 assessed as inhibition of bacterial growth incubated for 20 to 24 hrs by broth micro dilution method; assay type: functional; conditions: time 20-24 hrs
[11] = system: Staphylococcus aureus; experiment: Antibacterial activity against methicillin-resistant Staphylococcus aureus ATCC BAA41 assessed as fractional inhibitory concentration index incubated for 24 hrs by checker board assay; assay type: functional
[12] = target: T1, Cell division protein FtsZ (Staphylococcus aureus); experiment: Binding affinity to Staphylococcus aureus FtsZ assessed as equilibrium binding constant by isothermal titration calorimetry
[13] = Cytotoxicity against human HK-2 cells incubated for 48 hrs by MTT assay; assay type: toxicity, cell-based
[14] = system: Staphylococcus aureus; experiment: Antibacterial activity against methicillin-resistant Staphylococcus aureus ATCC BAA-1720 assessed as inhibition of bacterial growth incubated for 20 to 24 hrs by broth micro dilution method; assay type: functional; conditions: time 20-24 hrs
[15] = system: Enterococcus faecium; experiment: Antibacterial activity against vancomycin resistant Enterococcus faecium ATCC 700221 assessed as inhibition of bacterial growth incubated for 20 to 24 hrs by broth micro dilution method; assay type: functional; conditions: time 20-24 hrs
[16] = Cytotoxicity against mouse L929 cells incubated for 48 hrs by MTT assay; assay type: toxicity, cell-based
[17] = target: T2, Cell division protein FtsZ (Staphylococcus aureus, UniProt P0A031); experiment: Binding affinity to Staphylococcus aureus FtsZ assessed as dissociation constant by isothermal titration calorimetry
T2 sequence (P0A031 whole entry): T1 sequence (whole entry)

[18] = system: Staphylococcus aureus; experiment: Antibacterial activity against Staphylococcus aureus ATCC 29213 infected in HK-2 cells assessed as inhibition of bacterial growth incubated for 20 to 24 hrs by broth micro dilution method; assay type: functional; conditions: time 20-24 hrs
[19] = system: Acinetobacter baumannii; experiment: Antibacterial activity against multi-drug resistant Acinetobacter baumannii ATCC 19606 assessed as inhibition of bacterial growth incubated for 20 to 24 hrs by broth micro dilution method; assay type: functional; conditions: time 20-24 hrs
[20] = system: Enterococcus faecium; experiment: Antibacterial activity against Enterococcus faecium ATCC 49624 assessed as inhibition of bacterial growth incubated for 20 to 24 hrs by broth micro dilution method; assay type: functional; conditions: time 20-24 hrs
[21] = system: Staphylococcus aureus; experiment: Bactericidal activity against Staphylococcus aureus ATCC 29213 assessed as inhibition of bacterial growth incubated for 24 hrs by resazurin dye based microtiter plate assay; assay type: functional
[22] = system: Staphylococcus aureus; experiment: Antibacterial activity against Staphylococcus aureus ATCC 29213 assessed as inhibition of bacterial growth incubated for 20 to 24 hrs by broth micro dilution method; assay type: functional; conditions: time 20-24 hrs
[23] = system: Bacillus subtilis; experiment: Bactericidal activity against Bacillus subtilis CMCC (B) 63501 assessed as inhibition of bacterial growth incubated for 24 hrs by resazurin dye based microtiter plate assay; assay type: functional
[24] = system: Bacillus subtilis; experiment: Induction of morphological changes in Bacillus subtilis CMCC (B) 63501 assessed as elongation of bacterial cell at 0.5 times MIC for 4 hrs (reference value: 3 to 5 um) by microscopic analysis; assay type: functional
[25] = system: Staphylococcus aureus; experiment: Synergistic antibacterial activity against methicillin-resistant Staphylococcus aureus ATCC BAA41 assessed as inhibition of bacterial growth incubated for 24 hrs in presence of methicillin by checker board assay; assay type: functional
[26] = system: Staphylococcus epidermidis; experiment: Antibacterial activity against Staphylococcus epidermidis ATCC 12228 assessed as inhibition of bacterial growth incubated for 20 to 24 hrs by broth micro dilution method; assay type: functional; conditions: time 20-24 hrs
[27] = target: T1, Cell division protein FtsZ (Staphylococcus aureus); experiment: Binding affinity to Staphylococcus aureus FtsZ assessed as increase in alpha helix structure at 8 ug/ml incubated for 30 mins by circular dichroism method; conditions: dose 8.0 µg/ml
[28] = system: Bacillus subtilis; experiment: Antibacterial activity against Bacillus subtilis CMCC (B) 63501 assessed as inhibition of bacterial growth incubated for 20 to 24 hrs by broth micro dilution method; assay type: functional; conditions: time 20-24 hrs
[29] = target: T1, Cell division protein FtsZ (Staphylococcus aureus); experiment: Induction of Staphylococcus aureus FtsZ polymerization expressed in Escherichia coli BL21 (DE3) assessed as increase in absorbance at 2 to 8 ug/ml in presence of GTP by microplate reader method; conditions: dose 2-8 µg/ml, DDE = dose-dependent effect
[30] = system: Staphylococcus aureus; experiment: Antibacterial activity against methicillin-resistant Staphylococcus aureus ATCC 43300 assessed as inhibition of bacterial growth incubated for 20 to 24 hrs by broth micro dilution method; assay type: functional; conditions: time 20-24 hrs
[31] = system: Staphylococcus aureus; experiment: Bactericidal activity against Staphylococcus aureus ATCC 43300 assessed as inhibition of bacterial growth incubated for 24 hrs by resazurin dye based microtiter plate assay; assay type: functional
[32] = system: Escherichia coli; experiment: Antibacterial activity against Escherichia coli ATCC 25922 assessed as inhibition of bacterial growth incubated for 20 to 24 hrs by broth micro dilution method; assay type: functional; conditions: time 20-24 hrs
[33] = target: T1, Cell division protein FtsZ (Staphylococcus aureus); experiment: Binding affinity to Staphylococcus aureus FtsZ assessed as decrease in other structure at 8 ug/ml incubated for 30 mins by circular dichroism method; conditions: dose 8.0 µg/ml
[34] = target: T1, Cell division protein FtsZ (Staphylococcus aureus); experiment: Binding affinity to Staphylococcus aureus FtsZ assessed as decrease in beta turn structure at 8 ug/ml incubated for 30 mins by circular dichroism method; conditions: dose 8.0 µg/ml
[35] = system: Enterococcus faecalis; experiment: Antibacterial activity against Enterococcus faecalis ATCC 29212 assessed as inhibition of bacterial growth incubated for 20 to 24 hrs by broth micro dilution method; assay type: functional; conditions: time 20-24 hrs
[36] = system: Staphylococcus aureus; experiment: Antibacterial activity against Staphylococcus aureus ATCC 29213 infected in L929 cells assessed as inhibition of bacterial growth incubated for 20 to 24 hrs by broth micro dilution method; assay type: functional; conditions: time 20-24 hrs
[37] = Ratio of MBC for bactericidal activity against Staphylococcus aureus ATCC 29213 to MIC for antibacterial activity against Staphylococcus aureus ATCC 29213; assay type: functional
[38] = target: T1, Cell division protein FtsZ (Staphylococcus aureus); experiment: Induction of Staphylococcus aureus FtsZ polymerization expressed in Escherichia coli BL21 (DE3) assessed as increase in absorbance at 2 to 8 ug/ml by microplate reader method; conditions: dose 2-8 µg/ml
[39] = Ratio of MBC for bactericidal activity against Bacillus subtilis CMCC (B) 63501 to MIC for antibacterial activity against Bacillus subtilis CMCC (B) 63501; assay type: functional
[40] = system: Enterococcus faecium; experiment: Antibacterial activity against vancomycin-resistant Enterococcus faecium clinical isolate assessed as inhibition of bacterial growth incubated for 20 to 24 hrs by broth micro dilution method; assay type: functional; conditions: time 20-24 hrs
[41] = system: Enterococcus faecium; experiment: Bactericidal activity against Enterococcus faecium ATCC 700221 assessed as inhibition of bacterial growth incubated for 24 hrs by resazurin dye based microtiter plate assay; assay type: functional
[42] = system: Staphylococcus aureus; experiment: Induction of morphological changes in Staphylococcus aureus ATCC 29213 assessed as enlargement of cell size at 0.5 times MIC for 4 hrs by microscopic analysis; assay type: functional, organism-based
[43] = system: Pseudomonas aeruginosa; experiment: Antibacterial activity against […] Pseudomonas aeruginosa ATCC 27853 assessed as inhibition of bacterial growth incubated for 20 to 24 hrs by broth micro dilution method; assay type: functional; conditions: time 20-24 hrs
[44] = system: Staphylococcus aureus; experiment: Antibacterial activity against vancomycin-intermediate Staphylococcus aureus Mu50 assessed as inhibition of bacterial growth incubated for 20 to 24 hrs by broth micro dilution method; assay type: functional; conditions: time 20-24 hrs
[45] = system: Escherichia coli; experiment: Antibacterial activity against Escherichia coli ATCC 8739 assessed as inhibition of bacterial growth incubated for 20 to 24 hrs by broth micro dilution method; assay type: functional; conditions: time 20-24 hrs
[46] = system: Bacillus subtilis; experiment: Induction of drug resistance against Bacillus subtilis CMCC (B) 63501 measured after 16 passages; assay type: functional; conditions: dose <= 64.0 µg/ml, time 30.0 min
[47] = system: Staphylococcus aureus; experiment: Induction of drug resistance against Staphylococcus aureus ATCC 29213 assessed as fold increase in MIC after 16 passage; assay type: functional
[48] = Ratio of MBC for bactericidal activity against Enterococcus faecium ATCC 700221 to MIC for antibacterial activity against Enterococcus faecium ATCC 700221; assay type: functional
[49] = Ratio of MBC for bactericidal activity against Staphylococcus aureus ATCC 43300 to MIC for antibacterial activity against Staphylococcus aureus ATCC 43300; assay type: functional

COc1cccc(OC)c1C(=O)N[C@@H]1C(=O)N2[C@@H]1SC(C)(C)[C@@H]2C(=O)O [METHICILLIN]
MIC [1]: 256 µg/mL (≈ 673 µM) | MIC [2]: 64 µg/mL (≈ 168 µM) | MIC [3]: 1020 µg/mL | MIC [4]: 128 µg/mL (≈ 336 µM) | MIC [5]: 64 µg/mL (≈ 168 µM)

CC1CCN(c2cc(/C=C/c3ccc(N(C)C)cc3)c3ccccc3[n+]2C)CC1.[I-]
IC5 [6]: 32 µg/mL | MIC [7]: 64 µg/mL | Activity [8]: Active | MIC [9]: 4 µg/mL | MIC [10]: > 64 µg/mL | fractional inhibitory concentration index (FICI) [11]: 0.3125 | Kb [12]: 2.08 10^5/M | IC50 at 48 h [13]: 8.89 µg/mL | MIC [14]: 4 µg/mL | MIC [15]: 2 µg/mL | IC50 at 48 h [16]: 11.3 µg/mL | Kd [17]: 3.86 µM | MIC [18]: 2 µg/mL | MIC [19]: > 64 µg/mL | MIC [20]: 16 µg/mL | MBC [21]: 16 µg/mL | MIC [22]: 2 µg/mL | MBC [23]: 16 µg/mL | Activity [24]: 30 um | MIC [25]: 4 µg/mL | MIC [26]: 1 µg/mL | Activity [27]: Active | MIC [28]: 8 µg/mL | Activity [29]: Dde | MIC [30]: 4 µg/mL | MBC [31]: 32 µg/mL | MIC [32]: 32 µg/mL | Activity [33]: Active | Activity [34]: Active | MIC [3]: 16 µg/mL | MIC [35]: 16 µg/mL | MIC [36]: 2 µg/mL | Ratio [37]: >4 | Activity [38]: Active | Ratio [39]: 2 | MIC [40]: 16 µg/mL | MBC [41]: 8 µg/mL | Activity [42]: Active | MIC [43]: > 64 µg/mL | MIC [44]: 4 µg/mL | MIC [45]: 64 µg/mL | Activity [46]: Active | fold change (FC) [47]: 8 | Ratio [48]: 4 | Ratio [49]: >4
